{
  "source": "patent US20220118118A1",
  "about": "“BENZAZEPIN-L,7-DIOL-DERIVED RADIOLABELED LIGANDS WITH HIGH IN VIVO NMDA SPECIFICITY” (ETH ZURICH, priority 2018, published 2022)",
  "origin": "cited, not measured here",
  "details": "Garrigou-Cadenne et al. 1995",
  "data": [
    {"smiles": "OC(CN1CCC(Cc2ccc(F)cc2)CC1)c1ccc(Cl)cc1", "note": "(stereo not shown) [eliprodil]", "values": [
      {"measurement": "brain/plasma ratio", "value": "about 20"}
    ]}
  ]
}
